Test results as given in patent publication US20220000817A1, “PROGNOSIS AND TREATMENT OF METASTATIC CANCER” (Academia Sinica, priority 2018, published 2022).
Where a SMILES comes first, the peptide text is derived from it. The star is where a group is joined. Cbz = O=C(OCc1ccccc1)*

How the values were obtained:
EFHD2 [1] = test: Ibuprofen-induced EFHD2 degradation with proteasome/lysosome inhibitors, western blot; format: cell-based, human; details: for effect on ibuprofen-induced EFHD2 degradation: H1299 cells pretreated 0.5 hr, then 600 μM ibuprofen
Procedure: FIG. 6. Ibuprofen activates both proteasomal and lysosomal degradation of EFHD2. H1299 cells were pretreated with MG132 and/or Baf-A1 for 0.5 hr, then followed by the treatment of 600 μM ibuprofen for the indicated time. EFHD2 expression was determined by western blot assay.
Western blot analysis. Proteins were separated using 10% or 12.5% SDS-PAGE and transferred onto a PVDF membrane via electroblotting at 400V at 4° C. for 3 hr in 25 mmol/L Tris-HCl, 197 mmol/L glycine, and 13.3% (v/v) methanol. Then, 5% (w/v) skim milk in TBST was used for the blocking reaction, and the primary antibodies were incubated at room temperature overnight. After TBST washes, horseradish peroxidase-conjugated secondary antibodies were further incubated at room temperature for 1 hr. […] The primary antibodies used in this study included EFHD2 (ab106667; abcam), E-cadherin (#5296; Cell Signaling), vimentin (#3932; Cell Signaling), CAV1 (#3238; Cell Signaling), and β-actin (ab8226; abeam).
As ubiquitin-proteasome pathway and autophagy-lysosome pathway are two major systems responsible for cellular protein degradation, we then investigated whether any of the two systems has involved in ibuprofen-mediated EFHD2 degradation.

EFHD2 [2] = test: Western blot of EFHD2 expression in cancer cells; format: cell-based, human; details: H1299 and F4 cells
Procedure: Cell lines and cell culture. Human lung adenocarcinoma cells A549 and H1299 were obtained from the American Type Culture Collection (ATCC, Maryland, USA). Human lung adenocarcinoma cell lines CL1-0 were from National Taiwan University Hospital, Taipei, Taiwan. Cell line CL1-5-F4 (F4) was established by selection of increasingly invasive cell populations from CL1-0 in according to procedures described by Chu Y W et al (Am J Respir Cell Mol Biol (1997) 17:353-360). H1299 and F4 cells were cultured in DMEM/F-12 media (Invitrogen). A549 and CL1-0 cells were maintained in RPMI 1640 media (Invitrogen). All culture media were supplemented with 10% fetal bovine serum and 1% antibiotics (GIBCO). All cells were grown in a humidified atmosphere of 5% CO2 and 95% air at 37° C. Western blot analysis. Proteins were separated using 10% or 12.5% SDS-PAGE and transferred onto a PVDF membrane via electroblotting at […] at 4° C. for 3 hr in 25 mmol/L Tris-HCl, 197 mmol/L glycine, and 13.3% (v/v) methanol. Then, 5% (w/v) skim milk in TBST was used for the blocking reaction, and the primary antibodies were incubated at room temperature overnight. After TBST washes, horseradish peroxidase-conjugated secondary antibodies were further incubated at room temperature for 1 hr. […] The primary antibodies used in this study included EFHD2 (ab106667; abcam), E-cadherin (#5296; Cell Signaling), vimentin (#3932; Cell Signaling), CAV1 (#3238; Cell Signaling), and β-actin (ab8226; abeam). […] Results are illustrated in FIG. 4.

H1299 cells [3] = test: MTT cell survival, H1299 shGFP / shEFHD2 cells; format: cell-based, human
Procedure: MTT assay was used to determine cell survival ratio in the control cells (H1299^shGFP) or cells having the expression of EFHD2 being knock-out via interference RNA (H1299^shEFHD2) with or without the treatment of ibuprofen and/or cisplatin.
(§1) MTT assay. […] The absorbance of the solution at 570 nm was measured by spectrophotometer.
In this example, the mechanism of ibuprofen and its combination with a chemotherapeutic drug (i.e., cisplatin) were investigated via comparing their actions on the survival of H1299 cells in the presence or absence of EFHD2. To this purpose, H1299 cells were pre-treated with the present shRNA (i.e., H1299^shEFHD2) to knockdown the expression of EFHD2 in H1299 cells in accordance with procedures described in Example 1; and the control cells were pre-treated with shGFP. Results are depicted in FIG. 7.

H1299 cells [4] = test: H1299 xenograft mouse model, tumor size; format: in vivo, BALB/c nude mice; details: cisplatin 5 mg/Kg injection once per week for 3 weeks; ibuprofen 25 mg/Kg orally; alone or in combination
Description: Animals. All procedures (2017-305) involving animal research were approved by the Institutional Animal Care and Use Committee (IACUC) at Chinese Medical University Hospital (CMUH) (Taichung, Taiwan). 5-week-old male BALB/c nude mice (18 to 25 g) were obtained from the National Laboratory Animal Center (Taipei, Taiwan). Mice were maintained in an environment under a 12: 12 hr light/dark cycle with access to food and water ad libitum.
BALB/c nude mice were orthotropically xenografted with H1299 cells (1×10^6 cells) by stereotactic injection in the back. Mouse tumor progression (including growth and metastasis) was measured by IVIS weekly until week 7.
In this example, in vivo effect of the combined treatment of ibuprofen and cisplatin was investigated via the xenograft mouse model established in accordance with the procedures described in the “Materials and methods” section. For treatment purpose, mice were treated with cisplatin (5 mg/Kg, via injection, once per week for 3 weeks) and ibuprofen (25 mg/Kg, orally fed, on the day when cisplatin was injected, and 1 day prior to, and 1 day after the cisplatin injection), alone or in combination. Mice were then sacrificed and the tumors were isolated and further analyzed. Results are depicted in FIG. 9.

F4 cells = test: Sensitization of F4 cells to cisplatin by 2-APAs; format: cell-based, human; details: F4 cells pre-treated with 20 μM 2-APA, data not shown
Description: In this example, the effect of 2-APAs (e.g., ibuprofen, flurbiprofen, naproxen and ketoprofen) and cisplatin on F4 cells were investigated.

EFHD2 mRNA = test: qPCR of EFHD2 mRNA levels with or without ibuprofen; format: cell-based, human; details: data not shown
A549 cells = test: MTT cell survival, A549 pcDNA / pEFHD2 cells; format: cell-based, human
Procedure: FIG. 8 Susceptibility of cancer cells lacking endogenous EFHD2 to chemotherapeutic drug is not enhanced by ibuprofen. MTT assay was used to determine cell survival ratio in the control cells (A549^pcDNA) or cells transfecting with vectors that carrying exogenous EFHD2 gene (A549^pEFHD2) with or without the treatment of ibuprofen and/or cisplatin.
as §1
In this example, instead of knocking down the endogenous EFHD2 expression via interference RNA, human lung adenocarcinoma cells A549 having low level of endogenous EFHD2 were used to further elucidate the action of ibuprofen (i.e., enhancing the susceptibility of cancer cells to chemotherapeutic drugs). Results are illustrated in FIG. 8.

H1299 and F4 cells = test: Migration and invasion by matrigel transwell system; format: cell-based, human
Procedure: FIG. 5 Ibuprofen reduced EFHD2 expression in cancer cells. (A) The effect of various doses of ibuprofen on EFHD2 in H1299 and F4 cells were respectively determined by Western blot assay; (B) The effects of ibuprofen on the invasion and migration ability of H1299 and F4 cells were analyzed by matrigel transwell system. Wound healing assay. The in vitro migration assay was performed using a Culture-Insert well (ibidi GmbH, German/v). Cancer cells (4.5×10^4 cells) were cultured in suitable media in the device for 24 hr. After removal of the Culture-Insert, cancer cells were cultured for an additional 8 hr. The migration distance of cancer cells was recorded, and the migration area was measured using ImageJ software. Matrigel invasion assay. For in vitro invasion assay, cancer cells (1.5×10^5 cells in 200 μL) were suspended in the upper half of a PET membrane transwell insert chamber (BD Biosciences), which was coated with Matrigel (1 mg/mL; BD Biosciences), on a 24-well plate. Medium supplemented with 10% FBS was added as a chemoattractant to the lower half After incubation at 37° C. for 24 hr, cancer cells that passed through the insert were fixed with 3.7% formalin (Sigma-Aldrich) and stained with 0.1% crystal violet (Sigma-Aldrich).

Compound	expression of EFHD2 (EFHD2 [2])	sensitivity to subsequent cisplatin treatment (cell death) (F4 cells)	also measured
CO/C1=C\C(C)=C\[C@@H](C)[C@@H](O)[C@@H](C)C/C(C)=C/C=C/[C@H](OC)[C@@H]([C@@H](C)[C@@H](O)[C@H](C)[C@@]2(O)C[C@@H](O)[C@H](C)[C@@H](C(C)C)O2)OC1=O [Baf-A1, bafilomycin A1]			effect on ibuprofen-induced EFHD2 degradation (EFHD2 [1]): incapable of reducing ibuprofen-induced EFHD2 degradation
CC(C)C[C@@H](C=O)NC(=O)[C@H](CC(C)C)NC(=O)[C@H](CC(C)C)NC(=O)OCc1ccccc1 [MG132] (Cbz-Leu-Leu-Leu-aldehyde)			effect on ibuprofen-induced EFHD2 degradation (EFHD2 [1]): incapable of reducing ibuprofen-induced EFHD2 degradation
CC(=O)Oc1ccccc1C(=O)O [aspirin]	possessed no such effect		
N.N.[Cl][Pt][Cl] [cisplatin]			survival ratio (H1299 cells [3]; H1299^shGFP and H1299^shEFHD2 cells, cisplatin alone, MTT 24 hours): decreased with an increase in the concentration of cisplatin; size of the tumor (H1299 cells [4]): significantly reduce the size of the tumor
O=C(O)Cc1ccccc1Nc1c(Cl)cccc1Cl [diclofenac]	possessed no such effect		
CC(C(=O)O)c1ccc(-c2ccccc2)c(F)c1 (stereo not shown) [flurbiprofen]	effective in suppressing the expression of EFHD2	more sensitive to the subsequent treatment of cisplatin	
CC(C)Cc1ccc(C(C)C(=O)O)cc1 (stereo not shown) [ibuprofen]	effective in suppressing the expression of EFHD2	more sensitive to the subsequent treatment of cisplatin	level of EFHD2 (EFHD2 [2]; various doses of ibuprofen): reduce the level of EFHD2 in a dose-dependent manner; mechanism of EFHD2 degradation (EFHD2 [1]; H1299 cells, 600 μM ibuprofen): both proteasomal- and lysosomal-dependent mechanism; EFHD2 mRNA levels (EFHD2 mRNA): did not influence EFHD2 mRNA levels; survival ratio, combination with cisplatin (H1299 cells [3]; H1299^shEFHD2 cells vs H1299^shGFP+ibuprofen): comparable to the control cells subjecting to the same treatment; survival ratio, combination with cisplatin (H1299 cells [3]; H1299^shGFP cells, ibuprofen (600 and cisplatin (1, 2, 5, 10 or 20 μM))): lower than those treated with cisplatin alone; susceptibility to cisplatin treatment (A549 cells; A549^pEFHD2 vs A549^pEFHD2+ibuprofen): failed to increase their susceptibilities to cisplatin; susceptibility to cisplatin treatment (A549 cells; A549^pcDNA vs A549^pcDNA+ibuprofen): no enhanced susceptibility; size of the tumor (H1299 cells [4]): more effective than cisplatin; invasion ability (H1299 and F4 cells): attenuated; migration ability (H1299 and F4 cells): attenuated
CC(C(=O)O)c1cccc(C(=O)c2ccccc2)c1 (stereo not shown) [ketoprofen]	effective in suppressing the expression of EFHD2	more sensitive to the subsequent treatment of cisplatin	
O=C(c1ccccc1)c1ccc2n1CCC2C(=O)O (stereo not shown) [ketorolac]	possessed no such effect		
Cc1cccc(Nc2ccccc2C(=O)O)c1C [mefenamic acid]	possessed no such effect		
COc1ccc2cc([C@H](C)C(=O)O)ccc2c1 [naproxen]	effective in suppressing the expression of EFHD2	more sensitive to the subsequent treatment of cisplatin	
CN1C(C(=O)Nc2ccccn2)=C(O)c2ccccc2S1(=O)=O [piroxicam]	possessed no such effect		
CC1=C(CC(=O)O)c2cc(F)ccc2/C1=C\c1ccc([S+](C)[O-])cc1 (stereo not shown) [sulindac]	possessed no such effect		
